# Assays:
# [1] = oils selected based on biocompatibility; cited from earlier work
# [2] = biological target: urokinase plasminogen activator receptor (uPAR) (Homo sapiens, UniProt Q03405); test: binding affinity of Re complexes of the peptides for uPAR; settings: isostructural to the Tc analogues
# Sequence of urokinase plasminogen activator receptor (uPAR) (Q03405 23-305): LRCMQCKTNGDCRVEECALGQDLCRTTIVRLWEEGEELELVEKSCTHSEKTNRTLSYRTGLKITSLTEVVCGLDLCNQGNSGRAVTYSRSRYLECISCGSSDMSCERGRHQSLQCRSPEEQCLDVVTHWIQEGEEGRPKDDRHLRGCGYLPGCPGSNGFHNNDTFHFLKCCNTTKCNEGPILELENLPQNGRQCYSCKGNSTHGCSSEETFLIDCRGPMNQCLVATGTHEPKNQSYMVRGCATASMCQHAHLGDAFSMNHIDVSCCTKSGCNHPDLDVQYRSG
Ki [2] [pM],Compound,LD50 [1]
,CC(C)CC(C)(C)C [isooctane],greater than 2000 mg/kg
390 ± 100,D-Cha-F-s-r-Y-L-W-S-SAACII [L2],
1370 ± 830,SAACII-S-G-S-G-D-Cha-F-s-r-Y-L-W-S [L1],
